This note sets out measurements from US10525058B2, “Urea derivative or pharmacologically acceptable salt thereof” (KYORIN PHARMACEUTICAL CO., LTD., priority 2015, dated 2020).

Each structure is given as a SMILES string.

For one assay, the target named is T1, human FPRL1 (Homo sapiens, UniProt P25090).
T1 construct: expressed in transfected cells; host or cells: HEK293 (JCRB9068, NIBIO), transient co-transfection with pCMV-script vectors
T1 sequence (P25090 1-351): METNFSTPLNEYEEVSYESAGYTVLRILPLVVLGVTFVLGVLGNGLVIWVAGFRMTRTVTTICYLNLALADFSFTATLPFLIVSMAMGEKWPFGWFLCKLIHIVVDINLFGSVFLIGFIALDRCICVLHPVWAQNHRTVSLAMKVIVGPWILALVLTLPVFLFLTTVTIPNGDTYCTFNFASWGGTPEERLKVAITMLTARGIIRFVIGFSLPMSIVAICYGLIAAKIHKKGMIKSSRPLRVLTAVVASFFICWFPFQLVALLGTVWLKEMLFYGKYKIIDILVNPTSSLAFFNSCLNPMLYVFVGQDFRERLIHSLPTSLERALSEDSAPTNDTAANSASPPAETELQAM
In words: Measurement test of agonist activity on human FPRL1 (calcium mobilization in HEK293 cells transfected with human FPRL1 and Gα15). In kind it is cell-based. Conditions: Fluo-4 NW, molar concentration giving 50% maximum activation, read-out: Efficacy EC50. The text has this: Measurement test of agonist activity on human FPRL1
(1-1) Construction of Human FPRL1 Expression Vector
Human FPRL (SEQ ID NO: 3) was amplified in a PCR reaction from cDNA derived from a monocytic leukemia cell line THP-1 (TIB-202, ATCC) as a template using a forward primer shown in SEQ ID NO: 1, a reverse primer shown in SEQ ID NO: 2, and KOD-plus-ver. 2 (KOD-211, TOYOBO CO., LTD.). […] 2 (LGK-201, TOYOBO CO., LTD.). The ligation product was transformed into DH5α (DNA-901, TOYOBO CO., LTD.), cultured on a 100 μg/mL kanamycin-containing LB medium, and purified with HiSpeed Plasmid Maxi Kit (12662, QIAGEN).
(1-2) Construction of Human Gα15 Expression Vector
2. The amplified PCR product and pCMV-script vector were digested with Hind III and XhoI, and the resultant digest was ligated with Ligation high ver. 2. The ligation product was transformed into DH5α, cultured on a 100 μg/mL kanamycin-containing LB medium, and purified with HiSpeed Plasmid Maxi Kit.
(2-1) Method for Culturing and Subculturing HEK293
HEK293 (JCRB9068, NIBIO) was cultured in an incubator at 5% CO2 and 37° C. using DMEM (11885-092, GIBCO) containing 10% FBS and 1cPenicillin-Streptomycin (15140-122, GIBCO).
(2-2) Introduction of Human FPRL1 and Gal5 Expression Vectors
The cells were inoculated in a Collagen Type 1 coated 6-well plate (4810-010, IWAKI) to 5×10^5 cells/2.5 mL/well and cultured overnight. On the next day, human FPRL1 and Gα15 expression vectors were introduced using Lipofectamine 2000 transfection reagent (11668-019, Life technologies). First, the human FPRL1 and Gal5 expression vectors were diluted with Opti-MEM I Reduced Serum Medium (31985-070, GIBCO) to 2 μg/250 μL/well and Lipofectamine 2000 transfection reagent was diluted with Opti-MEM I Reduced Serum Medium to be 4 μL/250 μL/well. The vectors and reagent were softly diffused, and incubated at room temperature for 5 minutes. The vector solution was mixed with Lipofectamine 2000 transfection reagent in equal amounts. In order to form a complex of the vectors and Lipofectamine 2000 transfection reagent, the mixture was incubated at room temperature for 20 minutes, and added at 500 μL/well to the medium of inoculated cells. The treated cells were cultured for 24 hours, inoculated in Poly-D-Lysine coated 96-well plate (356640, BD Biosciences) at a cell density of 7×10^4 cells/100 μL/well, and cultured for another 24 hours. The resultant cells were used in a measurement test of calcium mobilization in the cells.
(3) Evaluation of Agonist Activity on Human FPRL1 (Test of Calcium Mobilization in Cell)
An appropriate amount of each test compound was first weighed, and dissolved to 10^−2 M by addition of dimethyl sulfoxide (DMSO). […] The plate dispensed with compound solutions was set in Flexstation (Molecular Devices, LLC.) until measurement.
Subsequently, 10 mL of assay buffer and 100 μL of probenecid solution (dissolved by addition of 1 mL of assay buffer to a 250 mM stock) were sufficiently mixed and dissolved in Fluo-4 NW dye mix. The medium of cells inoculated on the previous day was removed, the dissolved Fluo-4 NW dye mix was added in an amount of 90 μL/well, and a reaction was caused in the dark at 37° C. for 45 minutes. The cells after the reaction and chips for addition of the compound were set in Flexstation, and variation in fluorescence intensity over time after addition of the compound was measured [amount of added compound=10 μL (final concentration: 10^−5 M to 10^−12 M), excitation wavelength: 485 nm, measured wavelength: 525 nm, 1.5 sec×54 read]. A value was calculated by subtracting a base value during addition of DMSO from the maximum value of relative fluorescence unit, and analyzed. All the measurement data were analyzed with Prism 4 that was a data analysis tool.
Background: Calcium flux is commonly read through the fluorescence of an indicator in the cells.

Assay [1] concerns neutrophilic infiltration in mouse lung. In words: Effect on lipopolysaccharide-induced neutrophilic infiltration in mouse lung (BAL fluid neutrophil count). In kind it is in vivo. Conditions: oral, BALB/c male mouse, 30 min before LPS aerosol, BAL neutrophil count after 5 hours relative to control. The method, then: Effect of lipopolysaccharide induction on neutrophilic infiltration in mouse lung A compound to be tested was orally administrated to a mouse (BALB/c, male), and after 30 minutes, the mouse was placed in a plastic container. Lipopolysaccharide (0.3 mg/mL) dissolved in physiological saline was aerosolized with an ultrasonic wave nebulizer (NE-U17, OMRON Corporation), and exposed to the mouse for 10 minutes. After 5 hours, the anesthetized mouse was sacrificed by exsanguination. […] This operation was repeated 3 times, to obtain a BAL fluid. The BAL fluid was centrifuged at 4° C. and ×200 g for 5 minutes, and the pellet was suspended in a physiological saline containing 0.1% BSA. The number of white blood cells was counted using Turks solution with a microscope, and the total white blood cell count was calculated. The white blood cells were fixed on a glass slide using Cytospin 3 (Thermo BioAnalysis Japan K. K.). The cells were stained with Diff-Quik (SYSMEX INTERNATIONAL REAGENTS CO., LTD.), and the number thereof was counted with a microscope, and the neutrophil ratio was calculated. The neutrophil ratio was multiplied by the total white blood cell count to calculate the total neutrophil count. An effect of the compound to be tested represents a percentage (%) of suppression ratio relative to the neutrophil count in a control.

Broadly, the EC50 is the concentration giving half of the maximal effect. In the case of `COc1cc(F)c([C@@H]2CN3CCON=C3[C@H]2NC(=O)Nc2ccc(F)cc2)c(F)c1` (relative stereo) [Example 7-7, 1-[(7R*,8S*)-7-(2,6-difluoro-4-methoxyphenyl)-4,6,7,8-tetrahydro-3H-pyrrolo[2,1-c][1,2,4]-oxadiazin-8-yl]-3-(4-fluorophenyl)urea], the EC50 at human FPRL1 came out at 0.02 nM. Moreover, the “Suppression Ratio” value in assay [1] (dose 1 mg/kg) was determined as 97%.
In the case of `COc1ccc([C@@H]2COCC2NC(=O)Nc2ccc(Cl)cc2)cc1` (single isomer, unassigned; (+)) [Example 2-1 Isomer A, (+)-cis-1-(4-Chlorophenyl)-3-[4-(4-methoxyphenyl)tetrahydrofuran-3-yl]urea], on human FPRL1, the EC50 came out at 0.54 nM. Besides, the “Suppression Ratio” value in assay [1] (dose 3 mg/kg) was 82%.
Turning to `COc1ccc([C@@H]2COCC2NC(=O)Nc2ccc(F)cc2)cc1` (single isomer, unassigned; (+)) [Example 3-1 Isomer A, (+)-cis-1-(4-Fluorophenyl)-3-[4-(4-methoxyphenyl)tetrahydrofuran-3-yl]urea], the EC50 on human FPRL1 worked out at 0.62 nM. For the same compound, the “Suppression Ratio” value in assay [1] (dose 3 mg/kg) is 80%.
